# Experimental data: ChEMBL document CHEMBL1201862, “PubChem BioAssay data set” (2004)
#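 Step 1: Grow cells in 96-well plates. Step 2: Expose to compound for 48 hours at 5 concentrations. Step 3: Interpolate endpoints linearly; if unreached, use highest concentration. GI50 is the concentration that inhibits growth by half.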 Calls of active or inactive are those of the source. Cut-off read from the data, not from the text of the source: active = GI50 up to about 1.1 µM and inactive = higher.
# How the values were obtained:
# Test in all cases: growth of human tumour cells (NCI), 48 h
# 786-0 = system: 786-0
# A498 = system: A498
# A549 = system: A549
# ACHN = system: ACHN
# CCRF-CEM = system: CCRF-CEM
# COLO 205 = system: COLO 205
# DU-145 = system: DU-145
# EKVX = system: EKVX
# HCC 2998 = system: HCC 2998
# HCT-116 = system: HCT-116
# HCT-15 = system: HCT-15
# HL-60 = system: HL-60
# HOP-62 = system: HOP-62
# HOP-92 = system: HOP-92
# HT-29 = system: HT-29
# Hs-578T = system: Hs-578T
# IGROV-1 = system: IGROV-1
# K562 = system: K562
# KM12 = system: KM12
# LOX IMVI = system: LOX IMVI
# M14 = system: M14
# MCF7 = system: MCF7
# MDA-MB-231 = system: MDA-MB-231
# MDA-MB-435 = system: MDA-MB-435
# MOLT-4 = system: MOLT-4
# Malme-3M = system: Malme-3M
# NCI-H226 = system: NCI-H226
# NCI-H23 = system: NCI-H23
# NCI-H460 = system: NCI-H460
# NCI/ADR-RES = system: NCI/ADR-RES
# OVCAR-4 = system: OVCAR-4
# OVCAR-5 = system: OVCAR-5
# OVCAR-8 = system: OVCAR-8
# RPMI-8226 = system: RPMI-8226
# RXF 393 = system: RXF 393
# SF-268 = system: SF-268
# SF-295 = system: SF-295
# SF-539 = system: SF-539
# SK-MEL-28 = system: SK-MEL-28
# SK-MEL-5 = system: SK-MEL-5
# SK-OV-3 = system: SK-OV-3
# SN12C = system: SN12C
# SNB-19 = system: SNB-19
# SNB-75 = system: SNB-75
# SR = system: SR
# SW-620 = system: SW-620
# T47D = system: T47D
# TK-10 = system: TK-10
# U-251 = system: U-251
# UACC-257 = system: UACC-257
# UACC-62 = system: UACC-62
# UO-31 = system: UO-31
# CAKI-1 = system: CAKI-1
# NCI-H522 = system: NCI-H522
# OVCAR-3 = system: OVCAR-3
# PC-3 = system: PC-3
# SK-MEL-2 = system: SK-MEL-2
smiles,measurement,setting,value
C=CCC(C)C12CCNC(Cc3ccc(O)cc31)C2C (stereo unspecified),GI50,786-0,> 100 µM (inactive)
same,GI50,A498,43.6 µM (inactive)
same,GI50,A549,> 100 µM (inactive)
same,GI50,ACHN,> 100 µM (inactive)
same,GI50,CCRF-CEM,> 100 µM (inactive)
same,GI50,COLO 205,> 100 µM (inactive)
same,GI50,DU-145,> 100 µM (inactive)
same,GI50,EKVX,> 100 µM (inactive)
same,GI50,HCC 2998,51.1 µM (inactive)
same,GI50,HCT-116,> 100 µM (inactive)
same,GI50,HCT-15,> 100 µM
same,GI50,HL-60,> 10 µM (inactive)
same,GI50,HOP-62,> 100 µM (inactive)
same,GI50,HOP-92,56.1 µM (inactive)
same,GI50,HT-29,79.1 µM (inactive)
same,GI50,Hs-578T,82.8 µM (inactive)
same,GI50,IGROV-1,> 100 µM (inactive)
same,GI50,K562,41.3 µM (inactive)
same,GI50,KM12,> 100 µM (inactive)
same,GI50,LOX IMVI,> 100 µM (inactive)
same,GI50,M14,64.4 µM (inactive)
same,GI50,MCF7,> 100 µM (inactive)
same,GI50,MDA-MB-231,> 100 µM (inactive)
same,GI50,MDA-MB-435,> 100 µM (inactive)
same,GI50,MOLT-4,84.5 µM (inactive)
same,GI50,Malme-3M,> 100 µM (inactive)
same,GI50,NCI-H226,> 100 µM (inactive)
same,GI50,NCI-H23,> 100 µM (inactive)
same,GI50,NCI-H460,89.9 µM (inactive)
same,GI50,NCI/ADR-RES,> 100 µM (inactive)
same,GI50,OVCAR-4,> 100 µM (inactive)
same,GI50,OVCAR-5,> 100 µM (inactive)
same,GI50,OVCAR-8,> 100 µM (inactive)
same,GI50,RPMI-8226,> 100 µM (inactive)
same,GI50,RXF 393,> 100 µM (inactive)
same,GI50,SF-268,> 100 µM (inactive)
same,GI50,SF-295,> 100 µM (inactive)
same,GI50,SF-539,> 100 µM (inactive)
same,GI50,SK-MEL-28,> 100 µM (inactive)
same,GI50,SK-MEL-5,> 100 µM (inactive)
same,GI50,SK-OV-3,> 100 µM (inactive)
same,GI50,SN12C,> 100 µM (inactive)
same,GI50,SNB-19,> 100 µM (inactive)
same,GI50,SNB-75,> 100 µM (inactive)
same,GI50,SR,82.4 µM (inactive)
same,GI50,SW-620,> 100 µM (inactive)
same,GI50,T47D,> 100 µM (inactive)
same,GI50,TK-10,> 100 µM (inactive)
same,GI50,U-251,> 100 µM (inactive)
same,GI50,UACC-257,66.2 µM (inactive)
same,GI50,UACC-62,> 100 µM (inactive)
same,GI50,UO-31,38.6 µM (inactive)
CC(=O)O[C@H]1C(=O)[C@@]2(C)C(C(OC(=O)c3ccccc3)[C@]3(O)CC(OC(=O)[C@H](OC(=O)CCC(=O)O)C(NC(=O)c4ccccc4)c4ccccc4)C(C)=C1C3(C)C)C1(OC(C)=O)COC1C[C@@H]2OC(=O)CCC(=O)O (stereo partly specified),GI50,Malme-3M,11.6 µM (inactive)
same,GI50,OVCAR-4,> 79.4 µM (inactive)
same,GI50,SK-MEL-28,5.6 µM (inactive)
same,GI50,T47D,0.822 µM (active)
same,GI50,UO-31,83.9 µM (inactive)
O=C1CC(c2ccsc2)n2cccc21 (stereo unspecified),GI50,786-0,> 100 µM (inactive)
same,GI50,A498,> 100 µM (inactive)
same,GI50,A549,> 100 µM (inactive)
same,GI50,ACHN,> 100 µM (inactive)
same,GI50,CAKI-1,> 100 µM (inactive)
same,GI50,CCRF-CEM,> 100 µM (inactive)
same,GI50,COLO 205,> 100 µM (inactive)
same,GI50,DU-145,> 100 µM (inactive)
same,GI50,EKVX,> 100 µM (inactive)
same,GI50,HCC 2998,> 100 µM (inactive)
same,GI50,HCT-116,> 100 µM (inactive)
same,GI50,HCT-15,> 100 µM
same,GI50,HL-60,> 100 µM (inactive)
same,GI50,HOP-62,> 100 µM (inactive)
same,GI50,HOP-92,> 100 µM (inactive)
same,GI50,HT-29,> 100 µM (inactive)
same,GI50,Hs-578T,> 100 µM (inactive)
same,GI50,IGROV-1,> 100 µM (inactive)
same,GI50,K562,> 100 µM (inactive)
same,GI50,KM12,> 100 µM (inactive)
same,GI50,M14,> 100 µM (inactive)
same,GI50,MCF7,> 100 µM (inactive)
same,GI50,MDA-MB-231,> 100 µM (inactive)
same,GI50,MDA-MB-435,> 100 µM (inactive)
same,GI50,MOLT-4,> 10 µM (inactive)
same,GI50,NCI-H226,> 100 µM (inactive)
same,GI50,NCI-H23,> 100 µM (inactive)
same,GI50,NCI-H522,> 100 µM (inactive)
same,GI50,NCI/ADR-RES,> 100 µM (inactive)
same,GI50,OVCAR-3,> 100 µM (inactive)
same,GI50,OVCAR-4,> 100 µM (inactive)
same,GI50,OVCAR-5,> 100 µM (inactive)
same,GI50,OVCAR-8,> 100 µM (inactive)
same,GI50,PC-3,> 100 µM (inactive)
same,GI50,RPMI-8226,> 100 µM (inactive)
same,GI50,RXF 393,> 100 µM (inactive)
same,GI50,SF-268,> 100 µM (inactive)
same,GI50,SF-295,> 100 µM (inactive)
same,GI50,SF-539,> 100 µM (inactive)
same,GI50,SK-MEL-28,> 100 µM (inactive)
same,GI50,SK-MEL-2,> 100 µM (inactive)
same,GI50,SK-MEL-5,> 100 µM (inactive)
same,GI50,SK-OV-3,> 100 µM (inactive)
same,GI50,SN12C,> 100 µM (inactive)
same,GI50,SNB-19,> 100 µM (inactive)
same,GI50,SNB-75,32.1 µM (inactive)
same,GI50,SR,> 100 µM (inactive)
same,GI50,SW-620,> 100 µM (inactive)
same,GI50,T47D,> 100 µM (inactive)
same,GI50,TK-10,> 100 µM (inactive)
same,GI50,U-251,> 100 µM (inactive)
same,GI50,UACC-257,> 100 µM (inactive)
same,GI50,UACC-62,> 100 µM (inactive)
same,GI50,UO-31,> 100 µM (inactive)
NC(=O)CC(N)C(=O)NC(Cc1ccccc1)C(=O)NC(Cc1ccccc1)NC(=O)C(Cc1c[nH]c2ccccc12)C(=O)O (stereo unspecified),GI50,786-0,> 100 µM (inactive)
same,GI50,A498,> 100 µM (inactive)
same,GI50,A549,> 100 µM (inactive)
same,GI50,ACHN,> 100 µM (inactive)
same,GI50,CAKI-1,> 100 µM (inactive)
same,GI50,CCRF-CEM,> 100 µM (inactive)
same,GI50,COLO 205,> 100 µM (inactive)
same,GI50,DU-145,> 100 µM (inactive)
same,GI50,EKVX,> 100 µM (inactive)
same,GI50,HCC 2998,> 100 µM (inactive)
same,GI50,HCT-116,> 100 µM (inactive)
same,GI50,HCT-15,> 100 µM
same,GI50,HOP-62,> 100 µM (inactive)
same,GI50,HOP-92,> 100 µM (inactive)
same,GI50,HT-29,> 100 µM (inactive)
same,GI50,Hs-578T,> 100 µM (inactive)
same,GI50,IGROV-1,> 100 µM (inactive)
same,GI50,K562,> 100 µM (inactive)
same,GI50,KM12,> 100 µM (inactive)
same,GI50,LOX IMVI,> 100 µM (inactive)
same,GI50,M14,> 100 µM (inactive)
same,GI50,MCF7,> 100 µM (inactive)
same,GI50,MDA-MB-231,> 100 µM (inactive)
same,GI50,MDA-MB-435,> 100 µM (inactive)
same,GI50,MOLT-4,> 100 µM (inactive)
same,GI50,Malme-3M,> 100 µM (inactive)
same,GI50,NCI-H226,> 100 µM (inactive)
same,GI50,NCI-H23,> 100 µM (inactive)
same,GI50,NCI-H460,> 100 µM (inactive)
same,GI50,NCI-H522,> 100 µM (inactive)
same,GI50,NCI/ADR-RES,> 100 µM (inactive)
same,GI50,OVCAR-3,> 100 µM (inactive)
same,GI50,OVCAR-4,> 100 µM (inactive)
same,GI50,OVCAR-5,> 100 µM (inactive)
same,GI50,OVCAR-8,> 100 µM (inactive)
same,GI50,PC-3,> 100 µM (inactive)
same,GI50,RPMI-8226,> 100 µM (inactive)
same,GI50,RXF 393,> 100 µM (inactive)
same,GI50,SF-268,> 100 µM (inactive)
same,GI50,SF-295,> 100 µM (inactive)
same,GI50,SF-539,> 100 µM (inactive)
same,GI50,SK-MEL-28,> 100 µM (inactive)
same,GI50,SK-MEL-2,> 100 µM (inactive)
same,GI50,SK-MEL-5,49.4 µM (inactive)
same,GI50,SK-OV-3,> 100 µM (inactive)
same,GI50,SN12C,> 100 µM (inactive)
same,GI50,SNB-19,> 100 µM (inactive)
same,GI50,SNB-75,71.8 µM (inactive)
same,GI50,SW-620,> 100 µM (inactive)
same,GI50,T47D,> 100 µM (inactive)
same,GI50,TK-10,> 100 µM (inactive)
same,GI50,U-251,> 100 µM (inactive)
same,GI50,UACC-257,> 100 µM (inactive)
same,GI50,UACC-62,> 100 µM (inactive)
same,GI50,UO-31,> 100 µM (inactive)
